Measured values: patent publication US8691757B2 (Bristol-Myers Squibb Company, priority 2011, dated 2014)

Tests used:
[1] = tested on: HCV genotype 1b (Con1) replicon in HUH-7 cells; test: HCV replicon luciferase reporter assay, genotype 1b; assay type: cell-based; details: Hepatitis C virus, 72 h, HCV genotype 1b replicon, 3 days incubation, Renilla luciferase
Text: An HCV replicon whole cell system was established as described by Lohmann V, Korner F, Koch J, Herian U, Theilmann L, Bartenschlager R., Science 285(5424):110-3 (1999) and modified to introduce a luciferase reporter, as first described by Krieger et al (Krieger N, Lohmann V, and Bartenschlager R, J. Virol. 75(10):4614-4624 (2001)). CDNA encoding a humanized form of the Renilla luciferase gene and a linker sequence fused directly to the 3′-end of the luciferase gene were introduced into the replicon construct using an Asc1 restriction site located in core, directly upstream of the neomycin marker gene. The adaptive mutation at position 1179 (serine to isoleucine) was also introduced (Blight K J, Kolykhalov, A A, Rice, C M, Science 290(5498):1972-1974). A stable cell line constitutively expressing this HCV replicon construct was generated by first linearizing plasmid DNAs with ScaI. RNA transcripts were synthesized in vitro using the T7 MegaScript transcription kit (Ambion, Austin, Tex.) according to manufacturer's directions. In vitro transcripts of the cDNA were transfected into the human hepatoma cell line, HUH-7. […] Resulting cell lines were characterized for positive and negative strand RNA production and protein production over time. […]
(§1) HCV replicon luciferase assays were developed to monitor the inhibitory effects of compounds described in the disclosure on HCV genotypes 1a and 1b viral replication. HUH-7 cells, constitutively expressing the HCV replicon, were grown in Dulbecco's Modified Eagle Media (DMEM) (Gibco-BRL) containing 10% Fetal calf serum (FCS) (Sigma) and 1 mg/mL G418 (Gibco-BRL). Compounds were serially diluted 3 folds in DMSO for a twenty-point titration and subsequently transferred to sterile 384-well tissue-culture treated plates (Corning cat #3571). The plates were then seeded with 50 μL of cells at a density of 3.0×10^3 cells/well in DMEM containing 4% FCS (final DMSO concentration at 0.5%). After 3 days incubation at 37° C., cells were analyzed for Renilla Luciferase activity using the EnduRen as substrate (Promega cat #E6485). The EnduRen substrate was diluted in DMEM and then added to the plates to a final concentration of 7.5 μM. The plates were incubated for 2 hrs at 37° C. and then read immediately for 30 seconds with Viewlux Imager (PerkinElmer) using a luminescence program. To assess cytotoxicity of compounds, CC50 values were generated by multiplexing the EnduRen-containing plates with Cell Titer-Blue (Promega, cat #G8082). Cell-Titer Blue (3 μL) was added to each well and incubated for 8 hrs at 37° C. The fluorescence signal from each well was read, with an excitation wavelength at 525/10 nm and an emission wavelength of 598/10 nm, using the Viewlux Imager.
(§2) The EC50 values for compounds were calculated by using a four-parameter logistic equation: y=A+((B−A)/(1+((C/x)^D))), where A and B denotes minimal and maximal % inhibition, respectively, C is the EC50, D is the hill slope and x represents compound concentration.

[2] = tested on: HCV genotype 1a (H77 strain) replicon in HUH-7 cells; test: HCV replicon luciferase reporter assay, genotype 1a; assay type: cell-based; details: Hepatitis C virus, 72 h, HCV genotype 1a replicon, 3 days incubation, Renilla luciferase
Text: An HCV replicon whole cell system was established as described by Lohmann V, Korner F, Koch J, Herian U, Theilmann L, Bartenschlager R., Science 285(5424):110-3 (1999) and modified to introduce a luciferase reporter, as first described by Krieger et al (Krieger N, Lohmann V, and Bartenschlager R, J. Virol. 75(10):4614-4624 (2001)). CDNA encoding a humanized form of the Renilla luciferase gene and a linker sequence fused directly to the 3′-end of the luciferase gene were introduced into the replicon construct using an Asc1 restriction site located in core, directly upstream of the neomycin marker gene. The adaptive mutation at position 1179 (serine to isoleucine) was also introduced (Blight K J, Kolykhalov, A A, Rice, C M, Science 290(5498):1972-1974). A stable cell line constitutively expressing this HCV replicon construct was generated by first linearizing plasmid DNAs with ScaI. RNA transcripts were synthesized in vitro using the T7 MegaScript transcription kit (Ambion, Austin, Tex.) according to manufacturer's directions. In vitro transcripts of the cDNA were transfected into the human hepatoma cell line, HUH-7. […] Resulting cell lines were characterized for positive and negative strand RNA production and protein production over time.
A stable HCV replicon luciferase reporter cell line representing the genotype 1a H77 strain (Yanagi M, Purcell R H, Emerson S U, et al. Transcripts from a single full-length cDNA clone of hepatitis C virus are infectious when directly transfected into the liver of a chimpanzee. Proc Natl Acad Sci USA 1997; 94(16):8738-8743) was generated as described previously for the genotype 1b (Con1) replicon luciferase cell line. The replicon construct was modified by introducing mutations were introduced into the genes encoding the NS3 helicase domain (proline replaced by leucine at position 1496) and NS5A (serine to isoleucine at position 2204) to improve replication in cell culture.
as §1, §2

`COc1cnc(O[C@@H]2C[C@H]3C(=O)N[C@]4(C(=O)NS(=O)(=O)C5CC5)C[C@H]4/C=C\[C@@H](C)CCC[C@@H](C)[C@H](NC(=O)OC(C)(C)C(F)(F)F)C(=O)N3C2)c2ccccc12` [Compound 4, 1,1,1-trifluoro-2-methylpropan-2-yl (2R,6S,7R,11S,13aS,14aR,16aS,Z)-14a-(cyclopropylsulfonylcarbamoyl)-2-(4-methoxyisoquinolin-1-yloxy)-7,11-dimethyl-5,16-dioxo-1,2,3,5,6,7,8,9,10,11,13a,14,14a,15,16,16a-hexadecahydrocyclopropa[e]pyrrolo[1,2-a][1,4]diazacyclopentadecin-6-ylcarbamate] was tested, and the EC50 ([1]; numeric values) was 2.8 nM and the EC50 ([2]; numeric values) was 4.9 nM.

For `COc1cc2c(OC)cnc(O[C@@H]3C[C@H]4C(=O)N[C@]5(C(=O)NS(=O)(=O)C6CC6)C[C@H]5/C=C\[C@H](C)CCC[C@@H](C)[C@H](NC(=O)OC(C)(C)C(F)(F)F)C(=O)N4C3)c2cc1F` [Compound 33, 1,1,1-trifluoro-2-methylpropan-2-yl (2R,6S,7R,11R,13aS,14aR,16aS,Z)-14a-(cyclopropylsulfonylcarbamoyl)-2-(7-fluoro-4,6-dimethoxyisoquinolin-1-yloxy)-7,11-dimethyl-5,16-dioxo-1,2,3,5,6,7,8,9,10,11,13a,14,14a,15,16,16a-hexadecahydrocyclopropa[e]pyrrolo[1,2-a][1,4]diazacyclopentadecin-6-ylcarbamate], the EC50 ([1]; range classes) was 1.01 to 2 nM and the EC50 ([2]; range classes) was 2.01 to 5 nM.

`COc1cnc(O[C@@H]2C[C@H]3C(=O)N[C@]4(C(=O)NS(=O)(=O)C5CC5)C[C@H]4/C=C\[C@H](C)CCC[C@@H](C)[C@H](NC(=O)OC(C)(C)C(F)(F)F)C(=O)N3C2)c2ccccc12` [Compound 3, 1,1,1-trifluoro-2-methylpropan-2-yl (2R,6S,7R,11R,13aS,14aR,16aS,Z)-14a-(cyclopropylsulfonylcarbamoyl)-2-(4-methoxyisoquinolin-1-yloxy)-7,11-dimethyl-5,16-dioxo-1,2,3,5,6,7,8,9,10,11,13a,14,14a,15,16,16a-hexadecahydrocyclopropa[e]pyrrolo[1,2-a][1,4]diazacyclopentadecin-6-ylcarbamate] showed an EC50 ([1]; range classes) of 0.2 to 1 nM and an EC50 ([2]; range classes) of 0.2 to 1 nM.

`COc1ccc2c(O[C@@H]3C[C@H]4C(=O)N[C@]5(C(=O)NS(=O)(=O)C6(CF)CC6)C[C@H]5/C=C\[C@H](C)CCC[C@@H](C)[C@H](NC(=O)OC(C)(C)C(F)(F)F)C(=O)N4C3)ncc(OC)c2c1` [Compound 12] was tested, and the EC50 ([1]; range classes) was 1.01 to 2 nM and the EC50 ([2]; range classes) was 2.01 to 5 nM.

`COc1ccc2nc(O[C@@H]3C[C@H]4C(=O)N[C@]5(C(=O)NS(=O)(=O)C6CC6)C[C@H]5/C=C\[C@H](C)CCC[C@@H](C)[C@H](NC(=O)OC(C)(C)C)C(=O)N4C3)cnc2c1` [Compound 26, tert-butyl (2R,6S,7R,11R,13aS,14aR,16aS,Z)-14a-(cyclopropylsulfonylcarbamoyl)-2-(6-methoxyquinoxalin-2-yloxy)-7,11-dimethyl-5,16-dioxo-1,2,3,5,6,7,8,9,10,11,13a,14,14a,15,16,16a-hexadecahydrocyclopropa[e]pyrrolo[1,2-a][1,4]diazacyclopentadecin-6-ylcarbamate] gave an EC50 ([1]; numeric values) of 86.5 nM and an EC50 ([2]; numeric values) of 215 nM.

`COc1cnc(O[C@@H]2C[C@H]3C(=O)N[C@]4(C(=O)NS(=O)(=O)C5(C)CC5)C[C@H]4/C=C\[C@H](C)CCC[C@@H](C)[C@H](NC(=O)OC(C)(C)C(F)(F)F)C(=O)N3C2)c2cccc(Cl)c12` [Compound 25, 1,1,1-trifluoro-2-methylpropan-2-yl (2R,6S,7R,11R,13aS,14aR,16aS,Z)-2-(5-chloro-4-methoxyisoquinolin-1-yloxy)-7,11-dimethyl-14a-(1-methylcyclopropylsulfonylcarbamoyl)-5,16-dioxo-1,2,3,5,6,7,8,9,10,11,13a,14,14a,15,16,16a-hexadecahydrocyclopropa[e]pyrrolo[1,2-a][1,4]diazacyclopentadecin-6-ylcarbamate] was tested, and the EC50 ([1]; range classes) was 0.2 to 1 nM and the EC50 ([2]; range classes) was 1.01 to 2 nM.

Work on `CCOc1cnc(O[C@@H]2C[C@H]3C(=O)N[C@]4(C(=O)NS(=O)(=O)C5(C)CC5)C[C@H]4/C=C\[C@H](C)CCC[C@@H](C)[C@H](NC(=O)OC(C)(C)C(F)(F)F)C(=O)N3C2)c2ccccc12` [Compound 19, 1,1,1-trifluoro-2-methylpropan-2-yl (2R,6S,7R,11R,13aS,14aR,16aS,Z)-2-(4-ethoxyisoquinolin-1-yloxy)-7,11-dimethyl-14a-(1-methylcyclopropylsulfonylcarbamoyl)-5,16-dioxo-1,2,3,5,6,7,8,9,10,11,13a,14,14a,15,16,16a-hexadecahydrocyclopropa[e]pyrrolo[1,2-a][1,4]diazacyclopentadecin-6-ylcarbamate] yielded an EC50 ([1]; range classes) of 1.01 to 2 nM and an EC50 ([2]; range classes) of 2.01 to 5 nM.

In the case of `COc1cnc(O[C@@H]2C[C@H]3C(=O)N[C@]4(C(=O)NS(=O)(=O)C5CC5)C[C@H]4/C=C\[C@H](C)CCC[C@@H](C)[C@H](NC(=O)OC(C)(C)C)C(=O)N3C2)c2cccc(Cl)c12` [Compound 5, tert-butyl (2R,6S,7R,11R,13aS,14aR,16aS,Z)-2-(5-chloro-4-methoxyisoquinolin-1-yloxy)-14a-(cyclopropylsulfonylcarbamoyl)-7,11-dimethyl-5,16-dioxo-1,2,3,5,6,7,8,9,10,11,13a,14,14a,15,16,16a-hexadecahydrocyclopropa[e]pyrrolo[1,2-a][1,4]diazacyclopentadecin-6-ylcarbamate], the EC50 ([1]; numeric values) is reported as 1.2 nM and the EC50 ([2]; numeric values) is reported as 0.41 nM.

`COc1cc2c(OC)cnc(O[C@@H]3C[C@H]4C(=O)N[C@]5(C(=O)NS(=O)(=O)C6(C)CC6)C[C@H]5/C=C\[C@H](C)CCC[C@@H](C)[C@H](NC(=O)OC(C)(C)C(F)(F)F)C(=O)N4C3)c2cc1F` [Compound 15, 1,1,1-trifluoro-2-methylpropan-2-yl (2R,6S,7R,11R,13aS,14aR,16aS,Z)-2-(7-fluoro-4,6-dimethoxyisoquinolin-1-yloxy)-7,11-dimethyl-14a-(1-methylcyclopropylsulfonylcarbamoyl)-5,16-dioxo-1,2,3,5,6,7,8,9,10,11,13a,14,14a,15,16,16a-hexadecahydrocyclopropa[e]pyrrolo[1,2-a][1,4]diazacyclopentadecin-6-ylcarbamate] showed an EC50 ([1]; range classes) of 1.01 to 2 nM and an EC50 ([2]; range classes) of 1.01 to 2 nM.

`COc1ccc2c(O[C@@H]3C[C@H]4C(=O)N[C@]5(C(=O)NS(=O)(=O)C6(C)CC6)C[C@H]5/C=C\[C@H](C)CCC[C@@H](C)[C@H](NC(=O)OC(C)(C)C(F)(F)F)C(=O)N4C3)ncc(OC)c2c1` [Compound 14, 1,1,1-trifluoro-2-methylpropan-2-yl (2R,6S,7R,11R,13aS,14aR,16aS,Z)-2-(4,6-dimethoxyisoquinolin-1-yloxy)-7,11-dimethyl-14a-(1-methylcyclopropylsulfonylcarbamoyl)-5,16-dioxo-1,2,3,5,6,7,8,9,10,11,13a,14,14a,15,16,16a-hexadecahydrocyclopropa[e]pyrrolo[1,2-a][1,4]diazacyclopentadecin-6-ylcarbamate] showed an EC50 ([1]; range classes) of 1.01 to 2 nM and an EC50 ([2]; range classes) of 2.01 to 5 nM.
